The values that follow come from ChEMBL document CHEMBL4725219, “Identification and in silico prediction of metabolites of tebufenozide derivatives by major human cytochrome P450 isoforms” (Bioorg Med Chem, 2020).

The nature of data set [1]: Drug metabolism in recombinant Saccharomyces cerevisiae AH22 cells expressing human CYP3A4/CYP2C9 assessed as CYP-mediated hydroxylation at CH3-isopropyl group of B ring by measuring retention time of the metabolite at 100 uM incubated for 24 hrs by HPLC analysis. Format: ADME.
Data set [2] is described as follows: Drug metabolism in recombinant Saccharomyces cerevisiae AH22 cells expressing human CYP3A4/CYP2C9 assessed as CYP-mediated hydroxylation at CH-isopropyl group of B-ring by measuring retention time of the metabolite at 100 uM incubated for 24 hrs by HPLC analysis. The format is ADME.
Data set [3] is described as follows: Drug metabolism in recombinant Saccharomyces cerevisiae AH22 cells expressing human CYP3A4/CYP2C9 assessed as CYP-mediated hydroxylation at methyl group of A-ring by measuring retention time of the metabolite at 100 uM incubated for 24 hrs by HPLC analysis. Format: ADME.
In the next data set the target is T1, Cytochrome P450 1A2 (Homo sapiens, UniProt P05177).
T1 sequence (P05177 whole entry): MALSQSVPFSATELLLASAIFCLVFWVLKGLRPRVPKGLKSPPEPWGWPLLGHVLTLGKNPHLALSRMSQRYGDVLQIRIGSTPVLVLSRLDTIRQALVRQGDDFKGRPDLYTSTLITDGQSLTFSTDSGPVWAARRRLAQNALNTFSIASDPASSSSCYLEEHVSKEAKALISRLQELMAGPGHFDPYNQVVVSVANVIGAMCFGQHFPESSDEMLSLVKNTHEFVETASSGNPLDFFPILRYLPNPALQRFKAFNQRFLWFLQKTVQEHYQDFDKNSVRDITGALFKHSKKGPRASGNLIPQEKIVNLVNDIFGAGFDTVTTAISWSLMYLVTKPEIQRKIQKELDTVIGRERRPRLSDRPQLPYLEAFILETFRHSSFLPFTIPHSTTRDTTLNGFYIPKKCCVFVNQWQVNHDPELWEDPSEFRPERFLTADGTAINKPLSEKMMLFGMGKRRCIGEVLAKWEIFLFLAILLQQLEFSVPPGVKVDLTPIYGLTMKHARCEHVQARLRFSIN
Kind of data set: Drug metabolism in microsomes containing baculovirus expressing human CYP1A2 assessed as CYP1A2-mediated hydroxylation by LC/MS/MS analysis. Format: ADME, Microsome.

The target of another data set is Cytochrome P450 2D6 (Homo sapiens, UniProt P10635). Kind of data set: Drug metabolism in microsomes containing baculovirus expressing human CYP2D6 assessed as CYP2D6-mediated hydroxylation at methyl group of A-ring by LC/MS/MS analysis relative to control. Format: ADME, Microsome.
For a further data set, the target named is Cytochrome P450 2C9 (Homo sapiens, UniProt P11712). Description: Drug metabolism in microsomes containing baculovirus expressing human CYP2C9 assessed as CYP2C9-mediated hydroxylation at methyl group of A-ring by LC/MS/MS analysis relative to control. Format: ADME, Microsome.
For data set [4], the target named is T2, Cytochrome P450 3A4 (Homo sapiens, UniProt P08684). Description: Drug metabolism in recombinant Saccharomyces cerevisiae AH22 cells expressing human CYP3A4 assessed as CYP3A4-mediated hydroxylation at methyl group of B-ring by measuring retention time of the metabolite at 39 uM incubated for 24 hrs by HPLC analysis. Format: ADME. The following applies: recombinant enzyme.

The target of data set [5] is T2, Cytochrome P450 3A4. Description: Drug metabolism in recombinant Saccharomyces cerevisiae AH22 cells expressing human CYP3A4 assessed as CYP3A4-mediated hydroxylation at methyl group of A-ring by measuring retention time of the metabolite at 39 uM incubated for 24 hrs by HPLC analysis. Format: ADME. The following applies: recombinant enzyme.
The target in data set [6] is T2, Cytochrome P450 3A4. Kind of data set: Drug metabolism in recombinant Saccharomyces cerevisiae AH22 cells expressing human CYP3A4 assessed as CYP3A4-mediated hydroxylation at t-butyl group by measuring retention time of the metabolite at 39 uM incubated for 24 hrs by HPLC analysis. The format is ADME. The following applies: recombinant enzyme.

The structures appear in SMILES notation.

T2 sequence (P08684 whole entry): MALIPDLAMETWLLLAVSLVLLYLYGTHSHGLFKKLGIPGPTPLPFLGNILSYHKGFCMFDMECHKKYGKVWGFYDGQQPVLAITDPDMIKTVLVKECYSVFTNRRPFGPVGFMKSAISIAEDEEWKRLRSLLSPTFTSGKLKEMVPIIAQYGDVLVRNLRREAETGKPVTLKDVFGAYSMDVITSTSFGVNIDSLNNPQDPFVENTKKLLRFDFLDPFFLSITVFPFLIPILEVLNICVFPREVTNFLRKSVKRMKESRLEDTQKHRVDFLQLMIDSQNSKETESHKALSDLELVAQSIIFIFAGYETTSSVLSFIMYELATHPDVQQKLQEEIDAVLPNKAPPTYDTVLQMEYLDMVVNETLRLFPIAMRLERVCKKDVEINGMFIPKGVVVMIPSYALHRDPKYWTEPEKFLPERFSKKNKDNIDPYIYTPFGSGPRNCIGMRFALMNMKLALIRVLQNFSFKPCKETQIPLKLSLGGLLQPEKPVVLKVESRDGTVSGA
Sequence of Cytochrome P450 2D6 (P10635 whole entry): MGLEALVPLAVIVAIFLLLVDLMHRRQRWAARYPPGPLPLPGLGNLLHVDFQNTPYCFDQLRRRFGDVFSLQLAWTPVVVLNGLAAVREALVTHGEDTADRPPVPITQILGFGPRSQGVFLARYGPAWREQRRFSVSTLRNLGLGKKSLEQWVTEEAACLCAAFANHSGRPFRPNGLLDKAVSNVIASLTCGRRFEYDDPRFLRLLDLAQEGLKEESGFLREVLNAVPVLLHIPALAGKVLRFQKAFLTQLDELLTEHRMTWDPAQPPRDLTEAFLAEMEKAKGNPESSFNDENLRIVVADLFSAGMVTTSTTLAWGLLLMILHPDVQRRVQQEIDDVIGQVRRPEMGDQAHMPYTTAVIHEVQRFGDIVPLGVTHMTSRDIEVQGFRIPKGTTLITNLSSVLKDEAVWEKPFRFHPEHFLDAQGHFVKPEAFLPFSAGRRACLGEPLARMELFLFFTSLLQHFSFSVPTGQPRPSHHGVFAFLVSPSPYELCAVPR
Sequence of Cytochrome P450 2C9 (P11712 whole entry): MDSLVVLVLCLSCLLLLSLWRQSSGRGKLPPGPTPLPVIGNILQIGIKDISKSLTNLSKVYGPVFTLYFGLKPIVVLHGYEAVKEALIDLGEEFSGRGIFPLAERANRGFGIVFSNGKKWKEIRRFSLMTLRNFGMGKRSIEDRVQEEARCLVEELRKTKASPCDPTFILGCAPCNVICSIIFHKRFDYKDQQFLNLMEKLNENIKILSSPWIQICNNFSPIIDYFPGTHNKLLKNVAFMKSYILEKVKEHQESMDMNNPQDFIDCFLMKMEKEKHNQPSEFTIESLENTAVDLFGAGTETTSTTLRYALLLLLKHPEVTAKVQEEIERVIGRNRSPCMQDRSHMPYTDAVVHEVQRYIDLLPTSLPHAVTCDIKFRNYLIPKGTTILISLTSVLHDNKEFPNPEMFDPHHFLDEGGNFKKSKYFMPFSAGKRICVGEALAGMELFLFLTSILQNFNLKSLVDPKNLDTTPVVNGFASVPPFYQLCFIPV

Regarding `Cc1cc(C)cc(C(=O)N(NC(=O)c2ccc(C(C)C)cc2)C(C)(C)C)c1`, the Retention_time was 12 min in data set [1], 13.9 min in data set [2] and 17.7 min in [3]. In addition, the Drug metabolism result at Cytochrome P450 1A2 is given as “Metabolite_Notdetected”.

`Cc1cccc(C(=O)NN(C(=O)c2cc(C)cc(C)c2)C(C)(C)C)c1`: the Drug metabolism result at Cytochrome P450 2D6 is “Metabolite_Detected”; on Cytochrome P450 2C9 it was “Metabolite_Detected”; at Cytochrome P450 1A2, “Metabolite_Notdetected”. The Retention_time on Cytochrome P450 3A4 [4] was determined as 16.1 min; at Cytochrome P450 3A4 [5] it was 17.4 min; at Cytochrome P450 3A4 [6] it was 16.1 min.

In the case of `Cc1cc(C)cc(C(=O)N(NC(=O)c2ccccc2C)C(C)(C)C)c1`, the Drug metabolism result on Cytochrome P450 1A2 is listed as “Metabolite_Notdetected”.
